Test results: US5989874A, “Humectant, antistatic agent, dispersant and film-forming agent having polysaccharide as active principle, preparation process of polysaccharides, and Kliebsiella ocytoca TNM-3 strain” (Tayca Corporation, priority 1995, dated 1999)
Each block holds one molecule with its values, some of them ahead of it.

How the values were obtained:
[1] = Moisture retainability in low-humidity environment; assay type: physicochemical; conditions: relative humidity 20%, 20° C., 3 days
Description: The above operations were carried out at a constant temperature of 20° C.
The sample weight was measured periodically and he moisture retention percentagewas calculated from the following equation.
Moisture retention percentage(%)=(A-B)/B×100 (wherein A is sample weight when it became constant, and B is dry sample weight).

[2] = Moisture retention in high-humidity environment; assay type: physicochemical; conditions: relative humidity 92.9%, 30° C., 3 days
Description: The above operations were carried out at a constant temperature of 30° C.

[3] = test system: mushroom-derived tyrosinase; experiment: Tyrosinase-inhibitory activity; assay type: biochemical; conditions: relative values to kojic acid = 1.0; 0.1 ml of 300 μg/ml solution; L-tyrosine; 25° C., 10 minutes, pH 6.5
Description: Absorbance at 475 nm was measured by an ultraviolet visible spectrophotometer. The above process was repeated without adding the polysaccharide, and the absorbance was measured in the similar way and given as blank. The above process was further carried out using the polysaccharide obtained in Example 3. […] The tyrosinase inhibition rate was calculated from the following equation. […] Tyrosinase inhibition rate=(OD2 -OD1)/OD2 ×100 wherein OD1 is absorbance at 475 nm in case the specimen was added, and OD2 is absorbance at 475 nm in case no specimen was added (blank).

skin = conditions: 4% (w/v) aqueous solution

- Moisture retention [1]: 6.9%
- Material retention percentage (moisture retention percentage) [2]: 139.1%
Structure (SMILES): OCC(O)CO [Glycerol, glycerol]

- Tyrosinase inhibition rate [3]: 1.0
Structure (SMILES): O=c1cc(CO)occ1O [Kojic acid, kojic acid]

Structure (SMILES): CCCCCCCCCCCCOS(=O)(=O)[O-].[Na+] [sodium lauryl sulfate]
- primary irritation index (skin): 4.0
